Some test systems named below: SK-MEL-28; NCI-H23; SF-539; HOP-92; T47D; UO-31; IGROV-1; SW-620; SK-MEL-5; NCI-H522; SNB-75; HOP-62; OVCAR-3; SF-295; HCT-15; EKVX; Hs-578T; Malme-3M; RXF 393; RPMI-8226.
What all share (test): inhibition of tumour cell growth, NCI panel, 48 h

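Briefly, cells in 96-well plates were exposed to five compound concentrations for 48 h, and endpoints were estimated by linear interpolation. GI50 is the concentration that inhibits growth by half.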 Active and inactive are the calls of the source. Cut-off read from the data, not from the text of the source: active = GI50 up to about 1.1 µM and inactive = higher.

As for `O=C(CC(C(=O)c1cccs1)c1ccsc1)c1cccs1` (stereo not drawn), the GI50 in the assay with SK-MEL-28 was 81.5 µM (inactive); in the assay with NCI-H23, > 100 µM (inactive); in the assay on SF-539, > 100 µM (inactive); in the assay on HOP-92, 94.2 µM (inactive); in the assay with T47D, 26.3 µM (inactive); in the assay with UO-31, 51.3 µM (inactive). The GI50 in the assay on IGROV-1 was > 100 µM (inactive); with SW-620, 81.7 µM (inactive); with SK-MEL-5, 47.3 µM (inactive); with NCI-H522, 54.2 µM (inactive); in the assay on SNB-75, 12.8 µM (inactive); in the assay with HOP-62, > 100 µM (inactive). The GI50 in the assay with OVCAR-3 was 45 µM (inactive); in the assay on SF-295, 42 µM (inactive); with HCT-15, 71.3 µM; in the assay with EKVX, 28.8 µM (inactive); in the assay with Hs-578T, > 100 µM (inactive); in the assay with Malme-3M it was > 100 µM (inactive). Also, the GI50 in the assay with RXF 393 was 53.6 µM (inactive).
Take `O=C(ON=C1c2ccccc2C(Br)C(Br)c2ccccc21)c1cc([N+](=O)[O-])cc([N+](=O)[O-])c1` (stereo not drawn): the GI50 was 18.9 µM (inactive) in the assay on SK-MEL-28; 20.3 µM (inactive) in the assay on NCI-H23; 18 µM (inactive) in the assay on SF-539; 16 µM (inactive) with HOP-92; 35.2 µM (inactive) with T47D; 2.8 µM (inactive) in the assay with IGROV-1. The GI50 is 18.7 µM (inactive) in the assay with SW-620; 16.6 µM (inactive) in the assay on SK-MEL-5; 5.3 µM (inactive) in the assay on NCI-H522; 13.9 µM (inactive) in the assay on SNB-75; 18 µM (inactive) in the assay on HOP-62; 19.9 µM (inactive) in the assay with OVCAR-3. Also, the GI50 is 35 µM (inactive) with SF-295; 20.5 µM in the assay with HCT-15; 25.4 µM (inactive) in the assay on EKVX; 6.81 µM (inactive) in the assay with RPMI-8226; 23 µM (inactive) with Hs-578T; 18.5 µM (inactive) in the assay on Malme-3M. For the same molecule, the GI50 with RXF 393 was 19.6 µM (inactive).
On to `C=C1CC[C@H](O)C(C)(C)[C@@H]1CC/C(C)=C/CC/C=C(\C)CC/C=C(\C)CCC=C(C)C`, for which the GI50 in the assay on SK-MEL-28 is > 100 µM (inactive); in the assay with NCI-H23, 45.7 µM (inactive); with SF-539, > 100 µM (inactive); with HOP-92 it was > 100 µM (inactive); with T47D, 18.7 µM (inactive); in the assay with UO-31, > 100 µM (inactive). Moreover, the GI50 was > 100 µM (inactive) in the assay with IGROV-1; > 100 µM (inactive) in the assay on SW-620; 54 µM (inactive) in the assay with SK-MEL-5; 29 µM (inactive) in the assay with NCI-H522; > 100 µM (inactive) in the assay on SNB-75; > 100 µM (inactive) with HOP-62. Moreover, the GI50 is > 100 µM (inactive) in the assay on OVCAR-3; > 100 µM (inactive) with SF-295; 87.3 µM in the assay on HCT-15; 97.9 µM (inactive) in the assay on EKVX; > 100 µM (inactive) with Hs-578T; > 100 µM (inactive) in the assay on Malme-3M. The GI50 in the assay with RXF 393 is 13.7 µM (inactive).
`C/C=C/C(CC(O)(C(F)(F)F)C(F)(F)F)=N/NC(N)=S`: the GI50 with SK-MEL-28, with NCI-H23, in the assay with SF-539, with HOP-92, with T47D and in the assay on IGROV-1 was > 10 µM (inactive) in each case. The GI50 in the assay on SW-620, in the assay with SK-MEL-5, with NCI-H522, with SNB-75, in the assay with HOP-62 and in the assay with OVCAR-3 was > 10 µM (inactive) throughout. The GI50 with SF-295 is > 10 µM (inactive); with HCT-15 it was above 10 µM; in the assay with EKVX, > 10 µM (inactive); in the assay with RPMI-8226, > 10 µM (inactive); in the assay on Hs-578T, > 10 µM (inactive); in the assay on Malme-3M it was > 10 µM (inactive). In the assay on RXF 393, the GI50 was > 10 µM (inactive).
Take `O=c1c2cc(S(=O)(=O)O)ccc2nc(COc2ccc(Oc3ccc(Cl)cc3Cl)cc2)n1C(=S)Nc1ccc(Cl)cc1`: the GI50 with NCI-H23 is 18.7 µM (inactive); in the assay with SF-539 it was 16.8 µM (inactive); in the assay with HOP-92, 18.1 µM (inactive); in the assay with T47D it was 34.6 µM (inactive); in the assay with UO-31, 15.8 µM (inactive); in the assay on IGROV-1, 28.3 µM (inactive). For the same molecule, the GI50 in the assay with SW-620 was 20.9 µM (inactive); in the assay with SK-MEL-5, 17.7 µM (inactive); in the assay with NCI-H522, 17.6 µM (inactive); with SNB-75, 18.8 µM (inactive); in the assay on HOP-62 it was 20.5 µM (inactive); in the assay on OVCAR-3 it was 21.5 µM (inactive). The GI50 with SF-295 is 19.9 µM (inactive); in the assay with HCT-15, 21 µM; with EKVX, 21.8 µM (inactive); with RPMI-8226, 26.9 µM (inactive); with Hs-578T it was 20.6 µM (inactive); with Malme-3M it was 21.6 µM (inactive). The GI50 in the assay on RXF 393 was 15 µM (inactive).
For the molecule `CN(CCCNC(=O)c1cn(C)c2c1ccc1cc(Cl)ccc12)CCCNC(=O)c1cn(C)c2c1ccc1cc(Cl)ccc12`, the GI50 with SK-MEL-28 was 1.73 µM (inactive); in the assay on NCI-H23, 3.91 µM (inactive); with SF-539 it was 1.99 µM (inactive); in the assay with HOP-92, 3.6 µM (inactive); with T47D, 1.8 µM (inactive); in the assay on UO-31, 1.41 µM (inactive). Also, the GI50 with IGROV-1 was 1.46 µM (inactive); in the assay with SW-620 it was 1.62 µM (inactive); with SK-MEL-5, 4.99 µM (inactive); in the assay with NCI-H522, 1.75 µM (inactive); with SNB-75, 1.57 µM (inactive); in the assay with HOP-62 it was 1.65 µM (inactive). In addition, the GI50 was 1.9 µM (inactive) with OVCAR-3; 2 µM (inactive) in the assay on SF-295; 1.78 µM in the assay on HCT-15; 2.33 µM (inactive) in the assay with EKVX; 1.83 µM (inactive) in the assay on Hs-578T; 2.52 µM (inactive) with Malme-3M. For the same molecule, in the assay on RXF 393, the GI50 was 1.3 µM (inactive).
Regarding `CC(C)=CCC/C(C)=C/CC/C(C)=C/CC/C(C)=C/CC/C(C)=C\CC/C(C)=C/CC/C(C)=C/CC/C(C)=C/Cc1cc(O)ccc1O`, the GI50 in the assay with SK-MEL-28 is 0.424 µM (active); in the assay with NCI-H23, 0.361 µM (active); with SF-539, 1.33 µM (inactive); in the assay with HOP-92, 8.49 µM (inactive); with T47D, 1.24 µM (inactive); with UO-31, 1.72 µM (inactive). The GI50 was 0.323 µM (active) in the assay on IGROV-1; 2.28 µM (inactive) in the assay with SW-620; 0.294 µM (active) in the assay on SK-MEL-5; 0.505 µM (active) in the assay with NCI-H522; 3.41 µM (inactive) in the assay with SNB-75; 6.03 µM (inactive) in the assay on HOP-62. The GI50 in the assay with OVCAR-3 was 0.573 µM (active); in the assay on SF-295 it was 1.45 µM (inactive); with HCT-15, 1.69 µM; with EKVX it was 2.31 µM (inactive); in the assay with Hs-578T it was 3.33 µM (inactive); with Malme-3M, 0.292 µM (active). The GI50 with RXF 393 is 0.344 µM (active).
